In US7560466B2, “Methods of treating or preventing autoimmune diseases with 2,4-pyrimidinediamine compounds” (Rigel Pharmaceuticals, Inc., priority 2003, dated 2009):
Read-outs that look alike come from different tables or passages of the source.

System: cultured human mast cells (CHMC), IgE-induced degranulation
Experiment: CHMC low cell density IgE activation: tryptase assay
Assay type: cell-based
Experimental: Inhibition of degranulation was measured at both low and high cell density by quantifying the release of the granule specific factors tryptase, histamine and hexosaminidase. Inhibition of release and/or synthesis of lipid mediators was assessed by measuring the release of leukotriene LTC4 and inhibition of release and/or synthesis of cytokines was monitored by quantifying TNF-α, IL-6 and IL-13. Tryptase and hexosaminidase were quantified using fluorogenic substrates as described in their respective examples. […] The protocols of the various assays are provided below.
A second phase is performed to convert the expanded CD34-negative progenitor cells into differentiated mucosal mast cells. These mucosal cultured human mast cells (“CHMC”) are derived from CD34+ cells isolated from umbilical cord blood and treated to form a proliferated population of CD34-negative progenitor cells, as described above. […] Also, the cytokine composition of the medium was modified such that it contained SCF (200 ng/mL) and recombinant human IL-6 (200 ng/mL; Peprotech, Catalog No. 200-06 reconstituted to 100 ug/mL in sterile 10 mM acetic acid) (“CM/SCF/IL-6 medium”).
Pellet CHMC cells (980 rpm, 10 min) and resuspend in pre-warmed MT. Add 65 ul of cells to each 96-well plate. Depending on the degranulation activity for each particular CHMC donor, load 1000-1500 cells/well. Mix four times followed by a 1 hr incubation at 37° C. […] Stimulate cells by adding 25 ul of 6× anti-IgE solution to the appropriate plates. Add 25 ul MT to un-stimulated control wells. Mix twice following addition of the anti-IgE. Incubate at 37° C. for 30 minutes. […] Spin plates at 1000 rpm for 10 min to pellet cells. Transfer 25 ul of supernatant to a 96-well black bottom plate and add 100 ul of freshly diluted tryptase substrate solution to each well. Incubate plates at room temperature for 30 min.
In Table 1, all reported values are IC50s (in μM). […] In Table 1, all reported values are IC50s (in μM).

[1] = low cell density CHMC, 8pt, read-out: LD Tryptase, CHMC, IgE, 8pt
[2] = low cell density CHMC, 3pt, read-out: LD Tryptase, CHMC, IgE, 3pt
[3] = Homo sapiens, Mast cell, low cell density CHMC, 8pt, read-out: LD Tryptase, CHMC, IgE, 8pt
[4] = CHMC low cell density, 3pt, read-out: LD Tryptase, CHMC, IgE, 3pt
[5] = CHMC low cell density, 8pt, read-out: LD Tryptase, CHMC, IgE, 8pt

| Compound | IC50 [1] [µM] | IC50 [2] [µM] | other results |
| --- | --- | --- | --- |
| CC1C(=O)Nc2cc(Nc3nc(Nc4cccc(O)c4)ncc3F)ccc2S1(=O)=O (racemic) [Compound 284, racemic-5-Fluoro-N2-[3-hydoxyphenyl]-N4-(2-methyl-1,1,3-trioxo-2H,4H-benzo[1,4]thiazin-6-yl)-2,4-pyrimidinediamine] | < 10 | – | – |
| CNC(=O)COc1cccc(Nc2ncc(F)c(Nc3ccc4c(c3)NC(=O)C(C)S4(=O)=O)n2)c1 (racemic) [Compound 285, racemic-5-Fluoro-N2-[3-(N-methylamino)carbonylmethyleneoxyphenyl]-N4-(2-methyl-1,1,3-trioxo-2H,4H-benzo[1,4]thiazin-6-yl)-2,4-pyrimidinediamine] | < 10 | – | – |
| C[C@H]1Oc2ccc(Nc3nc(Nc4cc5c6c(c4)c(CCO)cn6CCO5)ncc3F)cc2NC1=O [Compound 205, (R)-5-Fluoro-N2-[6-(2-hydroxyethyl)-2,3-dihydropyrrolo[1,2,3-d,e]benzoxazin-8-yl]-N4-(2-methyl-3-oxo-2H,4H-benz[1,4]oxazin-6-yl)-2,4-pyrimidinediamine] | < 10 | – | – |
| CC1(C)COc2ccc(Nc3nc(Nc4cc5c6c(c4)c(CCO)cn6CCO5)ncc3F)cc2N1 [Compound 206, N4-(3,4-Dihydro-3,3-dimethyl-2H,4H-benz[1,4]oxazin-6-yl)-5-fluoro-N2-[6-(2-hydroxyethyl)-2,3-dihydropyrrolo[1,2,3-d,e]benzoxazin-8-yl]-2,4-pyrimidinediamine] | < 10 | – | – |
| O=C1COc2cc(Nc3nc(Nc4ccc(-c5ncco5)cc4)ncc3F)ccc2N1 [Compound 241] | – | – | IC50 [3]: < 10 µM |
| CNC(=O)COc1cccc(Nc2ncc(F)c(Nc3ccc4c(c3)NC(=O)C(C)(C)S4(=O)=O)n2)c1 [Compound 275, N4-(2,2-Dimethyl-1,1,3-trioxo-4H-benzo[1,4]thiazin-6-yl)-5-fluoro-N2-[3-(N-methylamino)carbonylmethyleneoxyphenyl]-2,4-pyrimidinediamine] | < 10 | – | – |
| COc1ccc(Nc2ncc(F)c(Nc3ccc4c(c3)NC(=O)C(C)(C)S4(=O)=O)n2)cc1Cl [Compound 276] | < 10 | – | – |
| CNC(=O)COc1cccc(Nc2ncc(F)c(Nc3ccc4c(c3)NC(=O)C(C)S4)n2)c1 (stereo not drawn) [Compound 279, 5-Fluoro-N2-[3-(N-methylamino)carbonylmethyleneoxyphenyl]-N4-(2-methyl-3-oxo-2H,4H-benzo[1,4]thiazin-6-yl)-2,4-pyrimidinediamine] | < 10 | – | – |
| CC1(C)C(=O)Nc2cc(Nc3nc(Nc4cccc(O)c4)ncc3F)ccc2S1(=O)=O [Compound 283, racemic-N4-(2,2-Dimethyl-1,1,3-trioxo-4H-benzo[1,4]thiazin-6-yl)-5-fluoro-N2-[3-hydoxyphenyl]-2,4-pyrimidinediamine] | < 10 | – | – |
| COc1ccc(Nc2ncc(F)c(Nc3ccc4c(c3)NC(=O)C(C)(C)S4)n2)cc1Cl [Compound 289] | < 10 | – | – |
| CNC(=O)COc1cccc(Nc2ncc(F)c(Nc3ccc4c(c3)NC(=O)C(C)(C)S4)n2)c1 [Compound 294, N4-(2,2-Dimethyl-3-oxo-4H-benzo[1,4]thiazin-6-yl)-5-fluoro-N2-[3-(N-methylamino)carbonylmethyleneoxyphenyl]-2,4-pyrimidinediamine] | < 10 | < 10 | – |
| COc1ccc(Nc2ncc(F)c(Nc3ccc4c(c3)NC(=O)C(C)(C)S4)n2)cc1F [Compound 299] | < 10 | < 10 | – |
| CNC(=O)COc1cccc(Nc2ncc(F)c(Nc3ccc4c(c3)NC(=O)CS4(=O)=O)n2)c1 [Compound 305, 5-Fluoro-N2-[3-(N-methylamino)carbonylmethyleneoxyphenyl]-N4-(1,1,3-trioxo-2H,4H-benzo[1,4]thiazin-6-yl)-2,4-pyrimidinediamine] | < 10 | – | – |
| OC=C1C=C(Nc2ncc(F)c(Nc3ccc4c(c3)OCCO4)n2)CC(=CO)C1 [Compound 342] | – | – | IC50 [3]: < 10 µM |
| Cc1cc(C)cc(Nc2ncc(F)c(Nc3ccc4c(c3)OC(F)(F)C(F)(F)O4)n2)c1 [Compound 362, N2-(3,5-Dimethyphenyl)-5-fluoro-N4-[3,4-(tetrafluoroethylenedioxy)phenyl]-2,4-pyrimidinediamine] | – | – | IC50 [4]: < 10 µM; IC50 [5]: > 10 µM |
| Cc1cc(Nc2ncc(F)c(Nc3ccc4c(c3)OC(F)(F)C(F)(F)O4)n2)cc(C(F)(F)F)c1 [Compound 366, 5-Fluoro-N2-(3-methyl-5-trifluoromethyl)-N4-[3,4-(tetrafluoroethylenedioxy)phenyl]-2,4-pyrimidinediamine] | – | – | IC50 [4]: < 10 µM |
| CN(c1ccc2c(c1)OCCO2)c1nc(NN)ncc1F [Compound 533, N4-(3,4-Ethylenedioxyphenyl)-5-fluoro-N4-methyl-2-hydrazine-4-pyrimidinea mine] | – | – | IC50 [4]: > 10 µM |
| CNC(=O)COc1c(C)cc(Nc2ncc(F)c(Nc3ccc4c(c3)OCCO4)n2)cc1C [Compound 572, N2-[3,5-dimethyl-4-(N-methylamino)carbonylmethyleneoxyphenyl]-N4-(3,4-ethylenedioxyphenyl)-5-fluoro-2,4-pyrimidinediamine] | – | – | IC50 [4]: < 10 µM; IC50 [5]: < 10 µM |
| CNC(=O)COc1c(C)cc(Nc2ncc(F)c(Nc3ccc4c(c3)NC(=O)C(C)(C)O4)n2)cc1C [Compound 574, N2-[3,5-dimethyl-4-(N-methylamino)carbonylmethyleneoxyphenyl]-N4-(2,2-dimethyl-3-oxo-4H-benz[1,4]oxazin-6-yl)-5-fluoro-2,4-pyrimidinediamine] | – | – | IC50 [4]: < 10 µM; IC50 [5]: < 10 µM |
| CNC(=O)Cn1ccc2cc(Nc3ncc(F)c(Nc4ccc5c(c4)OCCO5)n3)ccc21 [Compound 655, N4-(3,4-Ethylenedioxyphenyl)-5-fluoro-N2-[1-(N-methylamino)carbonylmethyleneindol-5-yl]-2,4-pyrimidinediamine] | – | – | IC50 [5]: < 10 µM |
| COc1cc(Nc2ncc(F)c(Nc3ccc4c(n3)NC(=O)C(C)(C)O4)n2)cc(OC)c1OC.O=S(=O)(O)c1ccc(O)cc1 [Compound 676, N4-(2,2-Dimethyl-3-oxo-4H-5-pyrid[1,4]oxazin-6-yl)-5-fluoro-N2-(3,4,5-trimethoxyphenyl)-2,4-pyrimidinediamine 4-Hydroxybenzenesulfonic Acid Salt] | – | – | IC50 [4]: < 10 µM; IC50 [5]: < 10 µM |

Continued, in another order:

| IC50 [1] [µM] | IC50 [2] [µM] | Compound | other results |
| --- | --- | --- | --- |
| – | < 10 | CC1Sc2ccc(Nc3nc(Cl)ncc3F)cc2NC1=O (racemic) [Compound 314, racemic-N2-Chloro-5-fluoro-N4-(2-methyl-3-oxo-2H,4H-benzo[1,4]thiazin-6-yl)-4-pyrimidinea mine] | – |
| – | > 10 | CC1C(=O)Nc2cc(Nc3nc(Cl)ncc3F)ccc2S1(=O)=O (racemic) [Compound 317, racemic-N2-Chloro-5-fluoro-N4-(2-methyl-1,1,3-trioxo-2H,4H-benzo[1,4]thiazin-6-yl)-4-pyrimidinea mine] | – |
| < 10 | – | COc1cc(Nc2ncc(F)c(Nc3ccc4c(c3)NC(=O)CS4(=O)=O)n2)cc(OC)c1OC [Compound 306, 5-Fluoro-N2-(3,4,5-triimethoxylphenyl)-N4-(1,1,3-trioxo-2H,4H-benzo[1,4]thiazin-6-yl)-2,4-pyrimidinediamine] | – |
| – | < 10 | O=C1CSc2ccc(Nc3nc(Cl)ncc3F)cc2N1 [Compound 313, N2-Chloro-5-fluoro-N4-(3-oxo-2H,4H-benzo[1,4]thiazin-6-yl)-4-pyrimidinea mine] | – |
| – | > 10 | O=C1CS(=O)(=O)c2ccc(Nc3nc(Cl)ncc3F)cc2N1 [Compound 315, N2-Chloro-5-fluoro-N4-(1,1,3-trioxo-2H,4H-benzo[1,4]thiazin-6-yl)-4-pyrimidinea mine] | – |
| – | < 10 | CC1(C)Sc2ccc(Nc3nc(Cl)ncc3F)cc2NC1=O [Compound 316, N2-Chloro-N4-(2,2,-dimethyl-3-oxo-4H-benzo[1,4]thiazin-6-yl)-5-fluoro-4-pyrimidinea mine] | – |
| – | < 10 | CC1(C)C(=O)Nc2cc(Nc3nc(Cl)ncc3F)ccc2S1(=O)=O [Compound 318, N2-Chloro-N4-(2,2-dimethyl-1,1,3-trioxo-4H-benzo[1,4]thiazin-6-yl)-5-fluoro-4-pyrimidinea mine] | – |
| – | < 10 | CC1(C)COc2ccc(Nc3nc(Cl)ncc3F)cc2N1 [Compound 320, N2-Chloro-N4-(3,3-dimethyl-1,4-benzoxazin-6-yl)-5-fluoro-pyrimidinea mine] | – |
| – | < 10 | CNC(=O)n1ccc2ccc(Nc3ncc(F)c(Nc4ccc5c(c4)NC(=O)C(C)(C)O5)n3)cc21 [Compound 347, N4-(2,2-Dimethyl-3-oxo-4H-benz[1,4]oxazin-6-yl)-N2-[1-(N-methylaminocarbony)lindol-6-yl)-5-fluoro-2,4-pyrimidinediamine] | – |
